Experimental data: ChEMBL document CHEMBL3137667, “[Drug-induced liver injury; fourteenth updated edition of the bibliographic database of liver injuries and related drugs]” (Gastroenterol Clin Biol, 2004)
Structures can show the parent of a compound that is named as a salt.

Assays:
[1] = human
[2] = human; remark: listed apart in the source
[3] = Times to onset, minimal and maximal, observed in the indexed observations. [column 'DELAI' in source]; settings: human
[4] = Highest frequency of moderate liver toxicity observed during clinical trials, expressed as a percentage. [column '% BIOL' in source]; settings: human
[5] = Highest frequency of acute liver toxicity observed during clinical trials, expressed as a percentage. [column '% AIGUE' in source]; settings: human
[6] = human, serum
[7] = human; remark: listed apart in the source
[8] = human, serum; remark: listed apart in the source
[9] = human; remark: listed apart in the source
[10] = human; remark: listed apart in the source
[11] = human; remark: listed apart in the source
[12] = human, serum, 4383 h
[13] = human; remark: listed apart in the source
[14] = human; remark: listed apart in the source
[15] = human; remark: listed apart in the source
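Wherever Hepatotoxicity (association with vascular disease) is given: count of indexed literature references reporting vascular liver injury in humans, e.g. peliosis hepatitis, hepatic veno-occlusive disease or Budd-Chiari syndrome.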
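Wherever Hepatotoxicity (benign tumour) is given: value is a count of indexed literature references citing a benign tumour confirmed by histopathology.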
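Wherever Hepatotoxicity (choleostasis) is given: human cholestatic liver injury, shown by histopathology or by peak ALT or AST elevation over alkaline phosphatase ratio below 2, value counts indexed literature reports.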
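Wherever Hepatotoxicity (chronic liver disease) is given: chronic liver injury confirmed by histopathology or persistently raised serum aminotransferase activity beyond 6 months, value given as the count of indexed literature references.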
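Wherever Hepatotoxicity (cirrhosis) is given: value is a count of indexed literature references reporting cirrhosis confirmed by histopathology.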
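Wherever Hepatotoxicity (cytolytic) is given: human cytolytic liver injury, shown by histopathology or by a ratio above 5 of peak ALT or AST elevation to alkaline phosphatase elevation, value counts indexed references.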
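Wherever Hepatotoxicity (granulomatous hepatitis) is given: value is a count of indexed literature references reporting granulomatous liver disease confirmed by histopathology.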
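Wherever Hepatotoxicity (malignant tumour) is given: malignant tumour confirmed by histopathology, value gives the count of indexed literature references reporting it.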
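Wherever Hepatotoxicity (severe hepatitis) is given: human clinical data: severe hepatitis, meaning potentially life-threatening liver failure or clinically observed cases, the value counts how many indexed literature references report it.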
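Wherever Hepatotoxicity (steatosis) is given: steatosis confirmed by histopathology, value is the count of indexed references.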

Structure (SMILES) | Hepatotoxicity (steatosis) [1] | Hepatotoxicity (malignant tumour) [2] | Hepatotoxicity (time to onset) [3] | Hepatotoxicity (moderate) [4] | Hepatotoxicity (acute) [5] | Hepatotoxicity (acute) [6] | Hepatotoxicity (cytolytic) [7] | Hepatotoxicity (moderate) [8] | Hepatotoxicity (cirrhosis) [9] | Hepatotoxicity (choleostasis) [10] | Hepatotoxicity (benign tumour) [11] | Hepatotoxicity (chronic liver disease) [12] | Hepatotoxicity (severe hepatitis) [13] | Hepatotoxicity (granulomatous hepatitis) [14] | Hepatotoxicity (association with vascular disease) [15] | further results
CCNc1cccnc1N1CCN(C(=O)c2cc3cc(OC)ccc3[nH]2)CC1 [ATEVIRDINE MESYLATE] | 0 | 0 | 3 weeks | 0% | 6.7% | 1 | 0 | 0 | 0 | 0 | 0 | 0 | 0 | 0 | 0 | –
CC(Cc1ccccc1)NCc1ccccc1Cl (stereo not given) [CLOBENZOREX] | 0 | 0 | 2 weeks | 0% | 0% | 1 | 1 | 0 | 0 | 0 | 0 | 0 | 0 | 0 | 0 | –
Clc1ccc(COC(Cn2ccnc2)c2ccc(Cl)cc2Cl)cc1 (stereo not given) [ECONAZOLE] | 0 | 0 | 4 months | 0% | 0% | 1 | 0 | 1 | 0 | 0 | 0 | 0 | 0 | 0 | 0 | –
CCN(CC)CCN1C(=O)CN=C(c2ccccc2F)c2cc(Cl)ccc21 [FLURAZEPAM] | 1 | 0 | 2 weeks - 6 months | 0% | 0% | 3 | 0 | 0 | 0 | 3 | 0 | 0 | 0 | 0 | 0 | –
CC(=O)N(O)CCCCCNC(=O)CCC(=O)N(O)CCCCCNC(=O)CCC(=O)N(O)CCCCCN [DEFEROXAMINE] | 0 | 0 | 6 weeks | 28% | 0% | 1 | 1 | 1 | 0 | 0 | 0 | 0 | 1 | 0 | 0 | –
O=C1CC2(CCCC2)CC(=O)N1CCCCN1CCN(c2ncccn2)CC1 [BUSPIRONE] | 0 | 0 | 26 days | 5.3% | 0% | 1 | 1 | 2 | 0 | 1 | 0 | 0 | 0 | 0 | 0 | –
O=c1[nH]c2ccccc2n1C1CCN(CCCC(c2ccc(F)cc2)c2ccc(F)cc2)CC1 [PIMOZIDE] | 0 | 0 | 3 days | 0% | 0% | 0 | 0 | 2 | 0 | 0 | 0 | 0 | 0 | 0 | 0 | –
O=C(c1ccccc1)c1ccc2n1CCC2C(=O)O (stereo not given) [KETOROLAC] | 0 | 0 | 1 day - 10 days | 32% | 1% | 1 | 1 | 1 | 0 | 1 | 0 | 0 | 0 | 0 | 0 | –
C=CC(N)CCC(=O)O (stereo not given) [VIGABATRIN] | 0 | 0 | 9 months | 13.3% | 0% | 2 | 2 | 3 | 0 | 0 | 0 | 0 | 1 | 0 | 0 | –
C[S+](CC[C@H](N)C(=O)[O-])C[C@H]1O[C@@H](n2cnc3c(N)ncnc32)[C@H](O)[C@@H]1O (stereo not given in full) [ADEMETIONINE] | 0 | 0 | 3 days | 5% | 0% | 1 | 1 | 2 | 0 | 0 | 0 | 0 | 0 | 0 | 0 | –
OCCOCCN1CCN(C2=Nc3ccccc3Sc3ccccc32)CC1 [QUETIAPINE] | 0 | 0 | 1 week - 3 weeks | – | – | 1 | – | 3 | 0 | – | 0 | 0 | – | – | 0 | Hepatotoxicity (moderate) ([4]; Liver): 14.8%; Hepatotoxicity (acute) ([5]; Liver): 1.9%; Hepatotoxicity (cytolytic) ([7]; Liver): 1; Hepatotoxicity (choleostasis) ([10]; Liver): 0; Hepatotoxicity (severe hepatitis) ([13]; Liver): 0; Hepatotoxicity (granulomatous hepatitis) ([14]; Liver): 0
